In one data set the test system is newly synthesized Tau. Description: Puro-PLA-Tau: proximity ligation with puromycylation for newly synthesized Tau. Format: cell-based. From the text: Analysis was done blinded to experimental condition. […] Scale bar=100 μm (right).
For data set [1], the system named is primary cortical neurons. Description: Permeability of iBEp in primary cortical neurons: membrane fractionation and biotin blot. Format: cell-based, mouse. Particulars: 1 μM, 1, 6 and 24 hours, cytosolic vs membrane fraction. The source says: (FIG. 4A) (Top) Structure of azide-PEG24-epoxomicin handle to enable rapid conjugation of linkers to global proteasome inhibitor epoxomicin using Click chemistry. (Bottom) Structure of Neuroproteasome-specific inhibitor impermeant Biotin-PEG24-Epoxomicin (iBEp). (FIG. 4B) Assessing permeability of iBEp in primary neurons. […] Cytosolic (Cyto) and membrane (Mem) fractions were immunoblotted using indicated antibodies. (FIG. 4C) Proteasome catalytic activity of membrane (Mem) and cytosolic (Cyto) fractions of neurons treated with iBEp. […] Proteasome catalytic activity was assessed by monitoring degradation of Suc-LLVY-AMC; proteasome-dependent cleavage of the substrate increases AMC fluorescence. N=3 biological replicates. **** p<0.0001 by One-Way ANOVA. (FIG. 4D) Primary neurons treated with iBEp probed for autophagy markers. […] Quantification of p62, LC3b, and Ulk1 intensities normalized to Actin. […] Sarkosyl-soluble and insoluble fractions were labeled with Tandem Mass Tags (TMTpro) for quantitative mass spectrometry. (FIG. 4F) Differential enrichment of proteins in the sarkosyl-soluble fraction of neurons treated with iBEp versus DMSO was analyzed and plotted as log 2-fold change vs-log 10 (P-value). […] (FIG. 4H) Differential enrichment of proteins in the sarkosyl-insoluble fraction of neurons treated with iBEp versus DMSO was analyzed and plotted as log 2-fold change vs −log 10 (P-value). […]

Another data set deals with proteasome (Homo sapiens, UniProt P28072+P28074+Q99436). Description: Efficacy against the proteasome relative to the parent inhibitor. Format: biochemical. The source says: We next tested the potency and selectivity of iBEp relative to Epoxomicin. Epoxomicin covalently and irreversibly binds the catalytic β subunits of the proteasome-therefore, the biotin moiety on iBEp serves as a tracer to detect whether proteasomes are inhibited by monitoring biotin signal on an SDS-PAGE gel (83, 87-89). […] This is supported by previous data that modification of the non-reactive end of epoxomicin has been shown not to change the selectivity of Epoxomicin for the proteasome (83, 87-89). […] We therefore chose doses of inhibitor where the effective concentration of the inhibitor was similar to previous studies using Epoxomicin alone and well within the acceptable range of efficacy given how potent Epoxomicin is as a proteasome inhibitor.
Many of our experiments rely on the use of iBEp because the biotin tracer on an irreversible and specific inhibitor allows us to track which proteasomes are inhibited. However, we wanted to validate our findings using a proteasome inhibitor with a distinct mechanism of action from Epoxomicin. We therefore modified MG132, a reversible peptide aldehyde proteasome inhibitor, with a sulfonated biotin linker on the nonreactive N-terminus (84). […] Instead, we turned to cellular and functional readouts of permeability. […]

Data set [2] has as its system Tau. Description: Sarkosyl-insoluble Tau in hippocampus of hTau-KI mice after stereotactic injection. Format: in vivo, mouse. Particulars: 6.4 μM iBEp stereotactic, contralateral vehicle, 72 hours.
Data set [3] deals with primary cortical neurons. Description: Quantitative TMT proteomics of sarkosyl-soluble and sarkosyl-insoluble fractions. Format: cell-based, mouse. As to conditions: 1 and 6 hours. From the text:
(FIG. 4A) (Top) Structure of azide-PEG24-epoxomicin handle to enable rapid conjugation of linkers to global proteasome inhibitor epoxomicin using Click chemistry. (Bottom) Structure of Neuroproteasome-specific inhibitor impermeant Biotin-PEG24-Epoxomicin (iBEp). (FIG. 4B) Assessing permeability of iBEp in primary neurons. […] Cytosolic (Cyto) and membrane (Mem) fractions were immunoblotted using indicated antibodies. (FIG. 4C) Proteasome catalytic activity of membrane (Mem) and cytosolic (Cyto) fractions of neurons treated with iBEp. […] Proteasome catalytic activity was assessed by monitoring degradation of Suc-LLVY-AMC; proteasome-dependent cleavage of the substrate increases AMC fluorescence. N=3 biological replicates. **** p<0.0001 by One-Way ANOVA. (FIG. 4D) Primary neurons treated with iBEp probed for autophagy markers. […] Lysates were immunoblotted using indicated antibodies against common autophagy markers. Quantification of p62, LC3b, and Ulk1 intensities normalized to Actin. […] (FIG. 4E) Schematic to analyze changes in sarkosyl-soluble and insoluble proteomes in response to neuroproteasome inhibition. […] Sarkosyl-soluble and insoluble fractions were labeled with Tandem Mass Tags (TMTpro) for quantitative mass spectrometry. (FIG. 4F) Differential enrichment of proteins in the sarkosyl-soluble fraction of neurons treated with iBEp versus DMSO was analyzed and plotted as log 2-fold change vs-log 10 (P-value). Green dots represent proteins enriched in the iBEp treatment compared to DMSO treatment. (FIG. 4G) Graphs plotting the log 2-fold change of select Neuroproteasome substrates enriched in the sarkosyl-soluble fraction from MS analysis in (FIG. 4F) compared to UPS substrates and autophagy markers ** p<0.01 (adjusted p-value after multiple corrections). (FIG. 4H) Differential enrichment of proteins in the sarkosyl-insoluble fraction of neurons treated with iBEp versus DMSO was analyzed and plotted as log 2-fold change vs −log 10 (P-value). Green dots represent proteins enriched in the iBEp treatment compared to DMSO treatment. […]

In a further data set the test system is p62, LC3bI/II, Ulk1. Description: Autophagy marker immunoblot in primary neurons. Format: cell-based, mouse. Particulars: 12 hours, DIV14 WT primary cortical neurons. The source says: (FIG. 4A) (Top) Structure of azide-PEG24-epoxomicin handle to enable rapid conjugation of linkers to global proteasome inhibitor epoxomicin using Click chemistry. (Bottom) Structure of Neuroproteasome-specific inhibitor impermeant Biotin-PEG24-Epoxomicin (iBEp). (FIG. 4B) Assessing permeability of iBEp in primary neurons. […] Cytosolic (Cyto) and membrane (Mem) fractions were immunoblotted using indicated antibodies. (FIG. 4C) Proteasome catalytic activity of membrane (Mem) and cytosolic (Cyto) fractions of neurons treated with iBEp. […] Proteasome catalytic activity was assessed by monitoring degradation of Suc-LLVY-AMC; proteasome-dependent cleavage of the substrate increases AMC fluorescence. N=3 biological replicates. **** p<0.0001 by One-Way ANOVA. (FIG. 4D) Primary neurons treated with iBEp probed for autophagy markers. […] Lysates were immunoblotted using indicated antibodies against common autophagy markers. Quantification of p62, LC3b, and Ulk1 intensities normalized to Actin. […] (FIG. 4E) Schematic to analyze changes in sarkosyl-soluble and insoluble proteomes in response to neuroproteasome inhibition. […] Sarkosyl-soluble and insoluble fractions were labeled with Tandem Mass Tags (TMTpro) for quantitative mass spectrometry. (FIG. 4F) Differential enrichment of proteins in the sarkosyl-soluble fraction of neurons treated with iBEp versus DMSO was analyzed and plotted as log 2-fold change vs-log 10 (P-value). Green dots represent proteins enriched in the iBEp treatment compared to DMSO treatment. (FIG. 4G) Graphs plotting the log 2-fold change of select Neuroproteasome substrates enriched in the sarkosyl-soluble fraction from MS analysis in (FIG. 4F) compared to UPS substrates and autophagy markers ** p<0.01 (adjusted p-value after multiple corrections). (FIG. 4H) Differential enrichment of proteins in the sarkosyl-insoluble fraction of neurons treated with iBEp versus DMSO was analyzed and plotted as log 2-fold change vs −log 10 (P-value). Green dots represent proteins enriched in the iBEp treatment compared to DMSO treatment. (FIG. 4I) (Left) Identification of proteins which are exclusively enriched in the insoluble fraction with no corresponding change in the soluble fraction (red). Plk2 represents the only protein which is enriched in the soluble fraction with no corresponding change in the insoluble fraction (green). Proteins plotted as differences in log 2 fold changes. (Right) Graphs plotting the log 2 fold changes of insoluble Tau (top) and soluble Tau (bottom) enriched in neurons treated with iBEp vs DMSO. ** p<0.01 (adjusted p-value after multiple corrections).
FIG. 5A-5G: Neuroproteasomes are differentially regulated by ApoE isoforms to determine formation of endogenous sarkosyl-insoluble Tau inclusions. […]
On the technique in general: Immunoblotting shows a protein as a band on a membrane.

Data set [4] deals with Tau. Put plainly: iBEp dose range in hTau/ApoE double KI primary neurons, sarkosyl-insoluble Tau. It is filed as cell-based, mouse.
Setting [5] is: dose range 1000-1.6 nM, hTau/ApoE double KI neurons.

The values below come from patent US20250281564A1, “DYSREGULATION OF NEUROPROTEASOMES BY APOE ISOFORMS DRIVES ENDOGENOUS TAU AGGREGATION” (The Trustees of Columbia University in the City of New York, priority 2022, published 2025).

As to `CC[C@H](C)[C@H](NC(=O)CCOCCOCCOCCOCCOCCOCCOCCOCCOCCOCCOCCOCCOCCOCCOCCOCCOCCOCCOCCOCCOCCOCCOCCOCCn1cc(COCCOCCOCCOCCNC(=O)CCCC[C@@H]2SC[C@@H]3NC(=O)N[C@@H]32)nn1)C(=O)N[C@H](C(=O)N[C@H](C(=O)N[C@@H](CC(C)C)C(=O)[C@@]1(C)CO1)[C@@H](C)O)[C@@H](C)CC` [iBEp, Biotin-PEG24-Epoxomicin], in the data set with newly synthesized Tau (DIV14 primary hippocampal neurons, puromycin 10 minutes), the “increase in Puro-PLA-Tau signal relative to DMSO” value is listed as about 3.5 fold. Moreover, the “newly synthesized Tau puncta greater than 24 nm in diameter” value with newly synthesized Tau (normalized to puncta number per size bin with DMSO) is “over twofold increase”. The “location of the biotin signal of covalent proteasome inhibition (permeability)” value with primary cortical neurons [1] is “only in the membrane fraction, and not in the cytosol”. Also, the “efficacy against the proteasome relative to the parent inhibitor” value at proteasome is “moderately reduces the efficacy of iBEp relative to Epoxomicin”. Moreover, the “sarkosyl-insoluble Tau in hippocampi of hTau-KI mice” value in the data set on Tau [2] was “strong increase of sarkosyl-insoluble Tau”. In addition, the “cell penetration judged from proteomics (no UPS substrates or autophagy markers accumulate)” value in the data set with primary cortical neurons [3] (DIV12-14 primary cortical neurons) was “does not detectably penetrate cells”. Further, in the data set on primary cortical neurons [3] (vs DMSO), the “number of proteins increasing in the soluble fraction” value was “over 250 proteins” and the “number of proteins that become sarkosyl-insoluble” value came to 52 proteins. For the same molecule, in the data set with p62, LC3bI/II, Ulk1, the LC3bI/II result is given as “no change in either p62 or LC3bI/II levels” and the p62 levels entry is listed as “no change in either p62 or LC3bI/II levels”. For the same molecule, the “sarkosyl-insoluble Tau in hTau/E4-dKI neurons at the lowest dose” value in the data set with Tau [4] (dose range 1000, 200, 40, 8 and 1.6 nM) is “accumulation of sarkosyl-insoluble Tau in hTau/E4-dKI neurons”. In addition, in the data set on Tau [4] (setting [5]), the “susceptibility to Tau aggregation, E4 neurons vs E3 neurons (more susceptible)” value is listed as “over 25 fold” and the “susceptibility to Tau aggregation, hTau/E2-dKI vs hTau/E3-dKI neurons (less susceptible)” value is “over 10 fold”.
